In this series the test system is Calu-3 cells. In words: Cellular tolerability test: TEER of Calu-3 monolayers. Conditions: for TEER after 2 hours Mean [%]: in KRB; for effect on vitality of Calu-3 cells (in words): summary of Table 1. In kind it is cell-based, human. From the text:
In addition to the physicochemical properties of drug formulations and their stability, either as solution or dispersed systems, it is helpful to investigate the cellular tolerability of such drug formulations in a cell culture test system. For this purpose the bronchial cell line Calu-3 was used as an in vitro model for toxicity assessment. Calu-3 represents a human submucosal adenocarcinoma cell line that forms tight, polarized and well differentiated monolayers with apical microvilli and tight junctional complexes. In contrast to other cell lines, Calu-3 cells generate extracellular mucus. […] In addition, it has been shown that loss of monolayer integrity is paralleled by a decrease in TEER to values below 600Ω·cm^2 and an increase in permeability. […] Since toxicity is paralleled by a loss of the monolayer integrity, a decrease in TEER of more than 50% is indicative for the toxicity of a test compound. […] The Calu-3 cell tests offer the possibility to investigate potential effects of the drug substance as well as the influence of excipients or formulation constituents.
TEER was determined in physiological Krebs Ringer buffer (KRB) for two hours after the application of the different formulations or excipients. A decrease of the measured resistance indicated an affection of intact epithelial cell-cell contacts (tight junctions), which is an extremely sensitive parameter to determine toxic effects. To assess whether such cell damage was reversible, the cells were incubated for 24 h in cell culture subsequently to the incubation with the test formulations.

Where [1] appears, read: conc. (undiluted), after 24 h in cell culture following incubation.
[2] abbreviates: conc. (undiluted; stock concentration given with each formulation name).
Setting [3] is: dilution 1:5, after 24 h in cell culture following incubation.
Setting [4] is: dilution 1:10, after 24 h in cell culture following incubation.

Several values for one entry are separate records, joined by “and”; a condition that tells them apart may be missing. Equal entries are not always repeated.

Take “2-hydroxypropyl-β-cyclodextrin [Example 2-HP-β-CD]”: the “TEER after 24 hours Mean [%]” value runs as follows: under setting [1], 45%; under setting [3], 77%; under setting [4], 73%. The “TEER after 2 hours Mean [%]” value by setting is: under setting [2], 59%; (dilution 1:5) 86%; (dilution 1:10) 90%.
In the case of `C[C@@H]1[C@H](O)[C@@H](C)/C=C/C=C/C=C/C=C/C=C/C=C/C=C/[C@H](O[C@@H]2O[C@H](C)[C@@H](O)[C@H](N)[C@@H]2O)C[C@@H]2O[C@](O)(C[C@@H](O)C[C@@H](O)[C@H](O)CC[C@@H](O)C[C@@H](O)CC(=O)O[C@H]1C)C[C@H](O)[C@H]2C(=O)O` [Amphotericin B, reference compound], the “effect on vitality of Calu-3 cells (in words)” value is “No damaging effect”. The “TEER after 24 hours Mean [%]” value under setting [1] came to 67%. In addition, under setting [2], the “TEER after 2 hours Mean [%]” value is given as 108%. Moreover, under setting [3], the “TEER after 24 hours Mean [%]” value is 64%. For the same compound, the “TEER after 2 hours Mean [%]” value (dilution 1:5) was 80%.
Turning to `O=C(O)CC(O)(CC(=O)O)C(=O)O` [Citric acid], the “TEER after 24 hours Mean [%]” value reads like this: under setting [1], 53%; under setting [3], 44%. Further, the “TEER after 2 hours Mean [%]” value by setting is: under setting [2], 105%; (dilution 1:5) 40%.
`OC[C@H]1O[C@@H]2O[C@H]3[C@H](O)[C@@H](O)[C@@H](O[C@H]4[C@H](O)[C@@H](O)[C@@H](O[C@H]5[C@H](O)[C@@H](O)[C@@H](O[C@H]6[C@H](O)[C@@H](O)[C@@H](O[C@H]7[C@H](O)[C@@H](O)[C@@H](O[C@H]8[C@H](O)[C@@H](O)[C@@H](O[C@H]9[C@H](O)[C@@H](O)[C@@H](O[C@H]1[C@H](O)[C@H]2O)O[C@@H]9CO)O[C@@H]8CO)O[C@@H]7CO)O[C@@H]6CO)O[C@@H]5CO)O[C@@H]4CO)O[C@@H]3CO` [Gamma-CD, γ-cyclodextrin]: the “TEER after 24 hours Mean [%]” value by setting is: under setting [1], 41%; under setting [3], 46%; under setting [4], 44%. Also, the “TEER after 2 hours Mean [%]” value stood at 61% under setting [2], 69% (dilution 1:5) and 65% (dilution 1:10).
Consider `CCCCCCCCCCCCOS(=O)(=O)[O-].[Na+]` [SDS, reference compound], for which the “TEER after 24 hours Mean [%]” value (positive control, 0.1% w/v in KRB, passages p44U, p45U, p46U, p47U) is 10% and 6% and 8%.
Consider `O=C1NS(=O)(=O)c2ccccc21.[Na]` [Saccharin-Natrium], for which the “TEER after 24 hours Mean [%]” value runs as follows: under setting [1], 43%; under setting [3], 50%. Also, the “TEER after 2 hours Mean [%]” value runs as follows: under setting [2], 55%; (dilution 1:5) 55%.
For the compound `O=C1O[C@H]([C@@H](O)CO)C([O-])=C1O.[Na+]` [Sodium Ascorbate], the “TEER after 24 hours Mean [%]” value by setting is: under setting [1], 70%; under setting [3], 66%; under setting [4], 51%. The “TEER after 2 hours Mean [%]” value runs as follows: under setting [2], 22%; (dilution 1:5) 70%; (dilution 1:10) 57%.
Take `NC[C@H]1O[C@H](O[C@H]2[C@H](O)[C@@H](O[C@H]3O[C@H](CO)[C@@H](O)[C@H](N)[C@H]3O)[C@H](N)C[C@@H]2N)[C@H](N)C[C@@H]1O` [Tobramycin (T100), Tobramycin, reference compound]: the “effect on vitality of Calu-3 cells (in words)” value was “No damaging effect”. Further, under setting [1], the “TEER after 24 hours Mean [%]” value came out at 46%. The “TEER after 2 hours Mean [%]” value under setting [2] was determined as 94%. Further, the “TEER after 24 hours Mean [%]” value under setting [3] turned out to be 79%. The “TEER after 2 hours Mean [%]” value (dilution 1:5) amounted to 123%.
As for Captisol, the “TEER after 24 hours Mean [%]” value under setting [1] was found to be 58%, the “TEER after 24 hours Mean [%]” value under setting [3] is recorded as 56% and the “TEER after 24 hours Mean [%]” value under setting [4] stood at 66%. For the same compound, the “TEER after 2 hours Mean [%]” value by setting is: under setting [2], 114%; (dilution 1:5) 98%; (dilution 1:10) 83%.
As to Vitamin E TPGS, the “TEER after 24 hours Mean [%]” value reads like this: under setting [1], 50%; under setting [3], 49%; under setting [4], 51%. For the same compound, the “TEER after 2 hours Mean [%]” value runs as follows: under setting [2], 47%; (dilution 1:5) 48%; (dilution 1:10) 47%.

The values above are taken from patent US20090025713A1, “Nebulised Antibiotics for Inhalation Therapy” (priority 2006, published 2009).
